Assay results as given in US8288419B2, “Aminopyrazole derivatives” (Actelion Pharmaceuticals, Ltd, priority 2007, dated 2012).

Target: T1, recombinant human ALX receptor (Homo sapiens, UniProt P25090)
T1 construct: expressed in transfected cells; host or cells: HEK293 (HEK293-hALXR-Gα16)
T1 sequence (P25090 1-351): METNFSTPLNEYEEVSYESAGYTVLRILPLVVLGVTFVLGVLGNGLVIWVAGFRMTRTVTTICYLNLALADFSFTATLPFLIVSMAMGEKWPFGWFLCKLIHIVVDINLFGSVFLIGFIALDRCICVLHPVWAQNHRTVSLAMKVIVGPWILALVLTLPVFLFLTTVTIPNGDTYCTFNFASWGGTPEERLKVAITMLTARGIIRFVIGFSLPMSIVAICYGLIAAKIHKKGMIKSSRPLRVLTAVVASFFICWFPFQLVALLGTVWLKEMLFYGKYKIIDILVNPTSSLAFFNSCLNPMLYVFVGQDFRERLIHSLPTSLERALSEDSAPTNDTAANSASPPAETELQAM
Assay: Intracellular calcium measurements (FLIPR), ALX receptor agonistic activity
Type: cell-based
Settings: HEK293-hALXR-Gα16 cells, Fluo-4 calcium fluorescence, normalized to 10 nM WKYMVm
Procedure: The ALX receptor agonistic activity of the compounds of formula (I) is determined in accordance with the following experimental method.
Intracellular Calcium Measurements:
Cells expressing recombinant human ALX receptor and the G-protein Gα16 (HEK293-hALXR-Gα16) were grown to 80% confluency in Growing Medium (GM). […] Stock solutions of test compounds were made up at a concentration of 10 mM in DMSO, and serially diluted in AB to concentrations required for activation dose response curves. WKYMVm (Phoenix Peptides) was used as a reference agonist. A FLIPR384 instrument (Molecular Devices) was operated according to the manufacturer's standard instructions, adding 4 μl of test compound dissolved at 10 mM in DMSO and diluted prior to the experiment in assay buffer to obtain the desired final concentration. Changes in fluorescence were monitored before and after the addition of test compounds at lex=488 nm and lem=540 nm. Emission peak values above base level after compounds addition were exported after base line subtraction. Values were normalized to high-level control (WKYMVm compound, 10 nM final concentration) after subtraction of the base line value (AB addition). The program XLlfit 3.0 (IDBS) was used to fit the data to a single site dose response curve of the equation (A+((B−A)/(1+((C/x)^D)))) and to calculate the EC50 values.

SMILES	EC50 [nM]
CC(=O)CCCCn1cc(NC(=O)OC(C)c2ccccc2)cn1 (racemic) [Example 125, [1-(5-Oxo-hexyl)-1H-pyrazol-4-yl]-carbamic acid (RS)-1-phenyl-ethyl ester]	69
CC(=O)c1ccc(Cn2ccc(NC(=O)OCc3cc(F)c(F)cc3F)n2)o1 [Example 24, [1-(5-Acetyl-furan-2-ylmethyl)-1H-pyrazol-3-yl]-carbamic acid 2,4,5-trifluoro-benzyl ester]	33
COc1ccc(-c2ocnc2C(=O)Nc2ccn(Cc3ccc(C(C)=O)o3)n2)cc1 [Example 48, 5-(4-Methoxy-phenyl)-oxazole-4-carboxylic acid [1-(5-acetyl-furan-2-ylmethyl)-1H-pyrazol-3-yl]-amide]	198
CC(=O)c1ccc(Cn2cc(NC(=O)OCc3ccc(C(F)(F)F)cc3)cn2)o1 [Example 63, [1-(5-Acetyl-furan-2-ylmethyl)-1H-pyrazol-4-yl]-carbamic acid 4-trifluoromethyl-benzyl ester]	53
COc1cccc(/C=C/C(=O)Nc2cnn(Cc3ccc(C(C)=O)o3)c2)c1OC [Example 93, (E)-N-[1-(5-Acetyl-furan-2-ylmethyl)-1H-pyrazol-4-yl]-3-(2,3-dimethoxy-phenyl)-acrylamide]	210
CC(=O)c1ccc(Cn2cc(NC(=O)c3ncsc3-c3cccc(Cl)c3)cn2)o1 [Example 120, 5-(3-Chloro-phenyl)-thiazole-4-carboxylic acid [1-(5-acetyl-furan-2-ylmethyl)-1H-pyrazol-4-yl]-amide]	202
CC(=O)CCCCn1cc(NC(=O)c2ncoc2-c2ccccc2)cn1 [Example 152, 5-Phenyl-oxazole-4-carboxylic acid [1-(5-oxo-hexyl)-1H-pyrazol-4-yl]-amide]	191
CC(=O)CCCCn1cc(NC(=O)/C=C/c2ccccc2Cl)cn1 [Example 157, (E)-3-(2-Chloro-phenyl)-N-[1-(5-oxo-hexyl)-1H-pyrazol-4-yl]-acrylamide]	330
CC(=O)CCCCn1ccc(NC(=O)c2ncoc2-c2ccccc2)n1 [Example 179, 5-Phenyl-oxazole-4-carboxylic acid [1-(5-oxo-hexyl)-1H-pyrazol-3-yl]-amide]	955
CC(=O)CCCCn1ccc(NC(=O)/C=C/c2ccccc2C(F)(F)F)n1 [Example 181, (E)-N-[1-(5-Oxo-hexyl)-1H-pyrazol-3-yl]-3-(2-trifluoromethyl-phenyl)-acrylamide]	67
CC(F)(F)c1ccc(Cn2ccc(NC(=O)OCc3ccccc3Cl)n2)o1 [Example 197, {1-[5-(1,1-Difluoro-ethyl)-furan-2-ylmethyl]-1H-pyrazol-3-yl}-carbamic acid 2-chloro-benzyl ester]	29
CC(F)(F)c1ccc(Cn2cc(NC(=O)OCc3ccccc3Cl)cn2)o1 [Example 199, {1-[5-(1,1-Difluoro-ethyl)-furan-2-ylmethyl]-1H-pyrazol-4-yl}-carbamic acid 2-chloro-benzyl ester]	33
CC(F)(F)CCCCn1ccc(NC(=O)OCc2ccccc2Cl)n1 [Example 201, [1-(5,5-Difluoro-hexyl)-1H-pyrazol-3-yl]-carbamic acid 2-chloro-benzyl ester]	154
CC(F)(F)CCCCn1ccc(NC(=O)c2ncoc2-c2ccccc2)n1 [Example 202, 5-Phenyl-oxazole-4-carboxylic acid [1-(5,5-difluoro-hexyl)-1H-pyrazol-3-yl]-amide]	899
CC(F)(F)CCCCn1cc(NC(=O)OCc2ccccc2Cl)cn1 [Example 203, [1-(5,5-Difluoro-hexyl)-1H-pyrazol-4-yl]-carbamic acid 2-chloro-benzyl ester]	28
CC(F)CCCCn1cc(NC(=O)OCc2ccccc2Cl)cn1 (stereo not shown) [Example 236, [1-(5-Fluoro-hexyl)-1H-pyrazol-4-yl]-carbamic acid 2-chloro-benzyl ester]	118
CC(F)(F)c1ccc(Cn2ccc(NC(=O)OCc3cccc(C(F)(F)F)c3)n2)o1 [Example 280, {1-[5-(1,1-Difluoro-ethyl)-furan-2-ylmethyl]-1H-pyrazol-3-yl}-carbamic acid 3-trifluoromethyl-benzyl ester]	27
CC(=O)c1ccc(Cn2cc(NC(=O)c3ncoc3-c3ccc(C)cc3)cn2)o1 [Example 331, 5-p-Tolyl-oxazole-4-carboxylic acid [1-(5-acetyl-furan-2-ylmethyl)-1H-pyrazol-4-yl]-amide]	85
CC(=O)c1ccc(Cn2ccc(NC(=O)c3nc(C)oc3-c3cccc(-c4ccccc4)c3)n2)o1 [Example 354, 5-Biphenyl-3-yl-2-methyl-oxazole-4-carboxylic acid [1-(5-acetyl-furan-2-ylmethyl)-1H-pyrazol-3-yl]-amide]	60
COCCc1cccc(-c2ocnc2C(=O)Nc2ccn(Cc3ccc(C(C)=O)o3)n2)c1 [Example 379, 5-[3-(2-Methoxy-ethyl)-phenyl]-oxazole-4-carboxylic acid [1-(5-acetyl-furan-2-ylmethyl)-1H-pyrazol-3-yl]-amide]	18
CC(=O)c1ccc(Cn2ccc(NC(=O)c3ncoc3-c3cccc(C(=O)OC(C)(C)C)c3)n2)o1 [Example 381, 3-{4-[1-(5-Acetyl-furan-2-ylmethyl)-1H-pyrazol-3-ylcarbamoyl]-oxazol-5-yl}-benzoic acid tert-butyl ester]	35

Continued by falling EC50, values first:

EC50 [nM]	SMILES
1470	CC(=O)c1cc(Cn2cc(NC(=O)c3ncoc3-c3ccccc3)cn2)on1 [Example 362, 5-Phenyl-oxazole-4-carboxylic acid [1-(3-acetyl-isoxazol-5-ylmethyl)-1H-pyrazol-4-yl]-amide]
809	CC(=O)c1cccc(Cn2cc(NC(=O)c3ncoc3-c3ccccc3)cn2)n1 [Example 364, 5-Phenyl-oxazole-4-carboxylic acid [1-(6-acetyl-pyridin-2-ylmethyl)-1H-pyrazol-4-yl]-amide]
363	CC(=O)CCCCn1ccc(NC(=O)OCc2ccc(F)c(F)c2)n1 [Example 169, [1-(5-Oxo-hexyl)-1H-pyrazol-3-yl]-carbamic acid 3,4-difluoro-benzyl ester]
310	CC(F)(F)c1ccc(Cn2ccc(NC(=O)c3ncoc3-c3ccccc3)n2)o1 [Example 198, 5-Phenyl-oxazole-4-carboxylic acid {1-[5-(1,1-difluoro-ethyl)-furan-2-ylmethyl]-1H-pyrazol-3-yl}-amide]
205	O=C(Nc1cnn(Cc2ccc(C(=O)C3CC3)o2)c1)OCc1ccccc1Cl [Example 3, [1-(5-Cyclopropanecarbonyl-furan-2-ylmethyl)-1H-pyrazol-4-yl]-carbamic acid 2-chloro-benzyl ester]
195	CC(F)(F)CCCCn1cc(NC(=O)c2ncoc2-c2ccccc2)cn1 [Example 204, 5-Phenyl-oxazole-4-carboxylic acid [1-(5,5-difluoro-hexyl)-1H-pyrazol-4-yl]-amide]
95	CC(=O)c1ccc(Cn2ccc(NC(=O)/C=C/c3cccc(C(F)(F)F)c3F)n2)o1 [Example 45, (E)-N-[1-(5-Acetyl-furan-2-ylmethyl)-1H-pyrazol-3-yl]-3-(2-fluoro-3-trifluoromethyl-phenyl)-acrylamide]
74	CC(=O)c1ccc(Cn2ccc(NC(=O)c3ncoc3-c3ccccc3)n2)s1 [Example 376, 5-Phenyl-oxazole-4-carboxylic acid [1-(5-acetyl-thiophen-2-ylmethyl)-1H-pyrazol-3-yl]-amide]
56	CC(=O)c1cccc(Cn2cc(NC(=O)OCc3ccccc3Cl)cn2)c1 [Example 366, [1-(3-Acetyl-benzyl)-1H-pyrazol-4-yl]-carbamic acid 2-chloro-benzyl ester]
46	CC(F)(F)c1ccc(Cn2cc(NC(=O)c3ncoc3-c3ccccc3)cn2)o1 [Example 200, 5-Phenyl-oxazole-4-carboxylic acid {1-[5-(1,1-difluoro-ethyl)-furan-2-ylmethyl]-1H-pyrazol-4-yl}-amide]
29	CC(=O)c1ccc(Cn2ccc(NC(=O)c3ncoc3-c3cccc(-c4ccccc4)c3)n2)o1 [Example 356, 5-Biphenyl-3-yl-oxazole-4-carboxylic acid [1-(5-acetyl-furan-2-ylmethyl)-1H-pyrazol-3-yl]-amide]
27	CCc1ccccc1COC(=O)Nc1cnn(Cc2ccc(C(C)(F)F)o2)c1 [Example 314, {1-[5-(1,1-Difluoro-ethyl)-furan-2-ylmethyl]-1H-pyrazol-4-yl}-carbamic acid 2-ethyl-benzyl ester]
25	Cc1ccc(F)c(COC(=O)Nc2ccn(CCCCC(C)(F)F)n2)c1F [Example 282, [1-(5,5-Difluoro-hexyl)-1H-pyrazol-3-yl]-carbamic acid 2,6-difluoro-3-methyl-benzyl ester]
